Our source for the IC50 values is patent publication EP4782453A1 (Beyang Therapeutics Co., Ltd., priority 2023, dated 2025).

pIC50: −log10 of the molar value.

The first assay concerns the target T1, Menin-MLL (Homo sapiens, UniProt O00255).
T1 construct: His-Menin (M1-L615 end); purchased BIORTUS BP9210
T1 sequence (O00255 1-615 isoform O00255-1): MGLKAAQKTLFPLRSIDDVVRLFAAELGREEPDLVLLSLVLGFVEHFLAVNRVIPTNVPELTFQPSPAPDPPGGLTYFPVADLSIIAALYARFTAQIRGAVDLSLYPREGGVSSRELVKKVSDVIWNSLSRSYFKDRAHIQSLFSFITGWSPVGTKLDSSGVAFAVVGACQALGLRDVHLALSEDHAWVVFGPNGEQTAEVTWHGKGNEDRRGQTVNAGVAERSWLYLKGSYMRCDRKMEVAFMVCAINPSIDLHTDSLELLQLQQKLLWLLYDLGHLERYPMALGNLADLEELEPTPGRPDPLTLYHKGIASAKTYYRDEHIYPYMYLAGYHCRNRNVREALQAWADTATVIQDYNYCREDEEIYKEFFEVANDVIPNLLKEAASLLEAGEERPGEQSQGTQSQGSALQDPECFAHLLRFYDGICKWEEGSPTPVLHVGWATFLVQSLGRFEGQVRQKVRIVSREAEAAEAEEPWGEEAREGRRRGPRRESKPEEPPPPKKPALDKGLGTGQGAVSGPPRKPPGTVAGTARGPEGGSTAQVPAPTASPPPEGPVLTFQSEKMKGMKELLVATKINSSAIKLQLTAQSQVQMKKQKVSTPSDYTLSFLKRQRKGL
As to the kind of experiment: Inhibitory activity against Menin-MLL binding (fluorescence polarization). Particulars: Menin-MLL IC50, fluorescence polarization; 150 nM His-Menin, 15 nM FITC-MLL; 25°C for 60 min. The method in brief: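 Fluorescence polarization competition: compound and 150 nM His-tagged menin (residues M1-L615) sit 15 min at 25 °C in pH 7.5 HEPES buffer with NaCl, DTT and BSA; 15 nM FITC-labelled MLL peptide then binds for 60 min. IC50 fitted sigmoidally from mP values, duplicate wells.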
One may read the pIC50 as −log10 of the IC50, conventionally taken in molar units. With `CCN(C(=O)c1cc(F)ccc1-c1cc(C2(F)CN(C(=O)C3NC4CCC3CC4)C2)cn2c(C)ncc12)C(C)C` [Example 75, N-ethyl-5-fluoro-2-(6-{3-fluoro-1-[(1R,3S,4S)-2-azabicyclo[2.2.2]octan-3-carbonyl]azacyclobutan-3-yl}-3-methylimidazo[1,5-a]pyridin-8-yl)-N-(isopropyl) benzamide], the pIC50 was 7.76.
As for `CCS(=O)(=O)N[C@H]1CC[C@H](CN2CC(c3cc(-c4ccc(F)cc4C(=O)N4CCOC[C@H]4C)c4cnc(C)n4c3)C2)CC1` [Example 134, N-[(1r,4r)-4-{[3-(8-{4-fluoro-2-[(3R)-3-methylmorpholin-4-carbonyl]phenyl}-3-methylimidazo[1,5-a]pyridin-6-yl)azacyclobutan-1-yl]methyl}cyclohexyl]ethan-1-sulfonamide], the pIC50 is 7.76.

The assay is the same for the next values; noted with them: fluorescence polarization; 150 nM His-Menin, 15 nM FITC-MLL; 25°C for 60 min; read-out: Menin-MLL IC50.
As to `CCN(C(=O)c1cc(F)ccc1-c1cc(C2CCN(Cc3ccc(-c4cc(OC)c(OC)nn4)cc3)C2)cn2c(C)ncc12)C(C)C` (stereo not drawn) [Example 83], the pIC50 was 8.22.
Consider `CCN(C(=O)c1cc(F)ccc1-c1cc(C2CN(C[C@H]3CC[C@H](NS(=O)(=O)CC)CC3)C2)cn2c(C)nc(F)c12)C(C)C` [Example 137], for which the pIC50 was 8.19.
The same measure, in the same setting: the result for `CCS(=O)(=O)N[C@H]1CC[C@H](CN2CC(c3cc(-c4ccc(F)cc4C(=O)N(CC(F)F)C(C)C)c4cnc(C)n4c3)C2)CC1` [Example 138] reads 8.22; that for `COCCN(C)CCCC(C(C)C)N1CC(c2cc(-c3ccc(F)cc3C(=O)N(CC(F)F)C(C)C)c3c(F)nc(C)n3c2)C1` (stereo not drawn) [Example 142, N-(2,2-difluoroethyl)-5-fluoro-2-[1-fluoro-6-(1-{6-[(2-methoxyethyl)(methyl)amino]-2-methylhexan-3-yl}azacyclobutan-3-yl)-3-methylimidazo[1,5-a]pyridin-8-yl]-N-(isopropyl)benzamide], 8.00; that for `COCCN(C)CCCC(C(C)C)N1CC(c2cc(-c3ccc(F)cc3C(=O)N3CCOCC3C)c3cnn(C)c3c2)C1` (stereo not drawn) [Example 185], 7.84.
The same measure, in the same setting: the result for `COCCN(C)CCC[C@H](C(C)C)N1CC(c2cc(-c3ccc(F)cc3C(=O)N3[C@H](C)COC[C@H]3C)c3cnn(C)c3c2)C1` [Example 186-2, [(4R)-4-[3-(4-{2-[(3R,5R)-3,5-dimethylmorpholin-4-carbonyl]-4-fluorophenyl}-1-methyl-1H-indazol-6-yl)azacyclobutan-1-yl]-5-methylhexyl](2-methoxyethyl)methylamine] reads 8.28; that for `COCCN(C)CCC[C@H](C(C)C)N1CC(c2cc(-c3ccc(F)cc3C(=O)N3CCOC[C@H]3C)c3c(F)nc(C)n3c2)C1` [Example 200-1], 8.37; that for `COC1CCN(CCCC(C(C)C)N2CC(c3cc(-c4ccc(F)cc4C(=O)N4CCOCC4C)c4c(F)nc(C)n4c3)C2)C1` (stereo not drawn) [Example 201-1], 8.59.
For `CO[C@@H]1CCN(CCC[C@H](C(C)C)N2CC(c3cc(-c4ccc(F)cc4C(=O)N4CCOC[C@H]4C)c4c(F)nc(C)n4c3)C2)C1` [Example 202], the pIC50 is 8.37.
On the same count and under the same terms, the result for `COC1CCN(CCC[C@H](C(C)C)N2CC(c3cc(-c4ccc(F)cc4C(=O)N4CCOC[C@H]4C)c4c(F)nc(C)n4c3)C2)CC1` [Example 204, (3R)-4-[5-fluoro-2-(1-fluoro-6-{1-[(3R)-6-(4-methoxypiperidin-1-yl)-2-methylhexan-3-yl]azacyclobutan-3-yl}-3-methylimidazo[1,5-a]pyridin-8-yl)benzoyl]-3-methylmorpholine] reads 8.32; that for `CC(=O)N1CCC(CN2CC(c3cc(-c4ccc(F)cc4C(=O)N4[C@H](C)COC[C@H]4C)c4c(F)nc(C)n4c3)C2)CC1` [Example 205], 7.99.
Same read-out and setting: to `Cc1nc(F)c2c(-c3ccc(F)cc3C(=O)N3[C@H](C)COC[C@H]3C)cc(C3CN(CC4CCOCC4)C3)cn12` [Example 208] belongs 8.05; to `CC(=O)N1CCC([C@H](C)N2CC(c3cc(-c4ccc(F)cc4C(=O)N4CCOC[C@H]4C)c4c(F)nc(C)n4c3)C2)CC1` [Example 257-2, 1-{4-[(1S)-1-[3-(1-fluoro-8-{4-fluoro-2-[(3R)-3-methylmorpholin-4-carbonyl]phenyl}-3-methylimidazo[1,5-a]pyridin-6-yl)azacyclobutan-1-yl]ethyl]piperidin-1-yl}ethan-1-one], 7.86.
`CCNC(=O)N1CCC(CN2CC(c3cc(-c4ccc(F)cc4C(=O)N4CCOC[C@H]4C)c4c(F)nc(C)n4c3)C2)CC1` [Example 261]: the pIC50 is 8.07.
Take `CNC(=O)N1CCC([C@H](C)N2CC(c3cc(-c4ccc(F)cc4C(=O)N4CCOC[C@H]4C)c4c(F)nc(C)n4c3)C2)CC1` [Example 264-2]: the pIC50 is 8.22.
Same read-out and setting: to `CC(=O)N1CCN(CCC[C@H](C(C)C)N2CC(c3cc(-c4ccc(F)cc4C(=O)N4CCOC[C@H]4C)c4c(F)nc(C)n4c3)C2)CC1` [Example 265] belongs 7.89; to `Cc1nc(F)c2c(-c3ccc(F)cc3C(=O)N3CCOC[C@H]3C)cc(C3CN([C@H](CCCN4CCN(C)CC4)C(C)C)C3)cn12` [Example 275, (3R)-4-[5-fluoro-2-(1-fluoro-3-methyl-6-{1-[(3R)-2-methyl-6-(4-methylpiperazin-1-yl)hexan-3-yl]azacyclobutan-3-yl}imidazo[1,5-a]pyridin-8-yl)benzoyl]-3-methylmorpholine], 8.49.
For `CCN1CCN(CCC[C@H](C(C)C)N2CC(c3cc(-c4ccc(F)cc4C(=O)N4CCOC[C@H]4C)c4c(F)nc(C)n4c3)C2)CC1` [Example 277], the pIC50 is 8.48.
Regarding `CC[C@@H](C1CCN(C(C)=O)CC1)N1CC(c2cc(-c3ccc(F)cc3C(=O)N3CCOC[C@H]3C)c3c(F)nc(C)n3c2)C1` [Example 280-1, 1-{4-[(1S)-1-[3-(1-fluoro-8-{4-fluoro-2-[(3R)-3-methylmorpholin-4-carbonyl]phenyl}-3-methylimidazo[1,5-a]pyridin-6-yl)azacyclobutan-1-yl]propyl]piperidin-1-yl}ethan-1-one], the pIC50 was 7.82.
Take `CCN(C(=O)c1cc(F)ccc1-c1cc(C2CN([C@@H](C)C3CCN(C(=O)CO)CC3)C2)cn2c(C)nc(F)c12)C(C)C` [Example 284-2]: the pIC50 is 8.70.
Take `Cc1nc(F)c2c(-c3ccc(F)cc3C(=O)N3CCOCC3C)cc(C3CN(C(CCCN4CCCC(O)C4)C(C)C)C3)cn12` (stereo not drawn) [Example 292]: the pIC50 is 8.35.
For the compound `Cc1nc(F)c2c(-c3ccc(F)cc3C(=O)N3CCOC[C@H]3C)cc(C3CN([C@H](CCCN4CCC[C@H](O)C4)C(C)C)C3)cn12` [Example 293], the pIC50 was 8.51.
Turning to `Cc1nc(F)c2c(-c3ccc(F)cc3C(=O)N3CCOC[C@H]3C)cc(C3CN([C@H](CO[C@@H]4CCCN(C)C4)C(C)C)C3)cn12` [Example 297-1, (3R)-4-[5-fluoro-2-(1-fluoro-3-methyl-6-{1-[(2S)-3-methyl-1-{[(3R)-1-methylpiperidin-3-yl]oxy}butan-2-yl]azacyclobutan-3-yl}imidazo[1,5-a]pyridin-8yl)benzoyl]-3-methylmorpholine], the pIC50 is 7.97.
With `CO[C@@H]1CCCN(CCC[C@H](C(C)C)N2CC(c3cc(-c4ccc(F)cc4C(=O)N4CCOC[C@H]4C)c4c(F)nc(C)n4c3)C2)C1` [Example 305], the pIC50 is 8.10.
With `CO[C@H]1CCCN(CCC[C@H](C(C)C)N2CC(c3cc(-c4ccc(F)cc4C(=O)N4CCOC[C@H]4C)c4c(F)nc(C)n4c3)C2)C1` [Example 306], the negative-log IC50 (pIC50) is 8.19.
As for `CCN(C(=O)c1cc(F)ccc1-c1cc(C2CN([C@H](CCCN3CCN(C)CC3)C(C)C)C2)cn2c(C)ncc12)C(C)C` [Example 310-2, N-ethyl-5-fluoro-2-(3-methyl-6-{1-[(3R)-2-methyl-6-(4-methylpiperazin-1-yl)hexan-3-yl]azacyclobutan-3-yl}imidazo[1,5-a]pyridin-8-yl)-N-(isopropyl)benzamide], the pIC50 is 8.44.
In the case of `CCN(C(=O)c1cc(F)ccc1-c1cc(C2CN([C@H](CCCN3CCN(C(C)=O)CC3)C(C)C)C2)cn2c(C)ncc12)C(C)C` [Example 311-2, 2-(6-{1-[(3R)-6-(4-acetylpiperazin-1-yl)-2-methylhexan-3-yl]azacyclobutan-3-yl}-3-methylimidazo[1,5-a]pyridin-8-yl)-N-ethyl-5-fluoro-N-(isopropyl)benzamide], the pIC50 was 8.07.

The assay is the same for the next values; noted with them: read-out: Menin-MLL IC50; fluorescence polarization; 150 nM His-Menin, 15 nM FITC-MLL; 25°C for 60 min.
In the case of `CCS(=O)(=O)N[C@H]1CC[C@H](CN2CC(c3cc(-c4ccc(F)cc4C(=O)N4[C@H](C)COC[C@H]4C)c4c(F)nc(C)n4c3)C2)CC1` [Example 197, N-[(1r,4r)-4-{[3-(8-{2-[(3R,5R)-3,5-dimethylmorpholin-4-carbonyl]-4-fluorophenyl}-1-fluoro-3-methylimidazo[1,5-a]pyridin-6-yl)azacyclobutan-1-yl]methyl}cyclohexyl]ethan-1-sulfonamide], the negative logarithm of the IC50 (pIC50) is 8.19.
